Experimental data: patent publication US8952024B2, “Herbicidal pyrimidone derivatives” (E I du Pont de Nemours and Company, priority 2009, dated 2015)

What was measured:
Assay type in all cases: in vivo
[1] = test system: Italian ryegrass (Lolium multiflorum); test: Test B pre-/postemergence plant response
How it was run: (§1)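 Ratings reflect visual comparison with untreated controls 13 to 15 days after application, from 0 (no effect) to 100 (complete control). Application was preemergence to seeded loam/sand soil or postemergence to 1- to 4-leaf plants, with compound in a non-phytotoxic, surfactant-containing solvent.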

[2] = test system: Surinam grass (Brachiaria decumbens); test: Test B pre-/postemergence plant response
How it was run: as §1

[3] = test system: bermudagrass (Cynodon dactylon); test: Test B pre-/postemergence plant response
How it was run: as §1

[4] = test system: blackgrass (Alopecurus myosuroides); test: Test B pre-/postemergence plant response
How it was run: as §1

corn (Zea mays) = test: Test B pre-/postemergence plant response
How it was run: as §1

[5] = test system: johnsongrass (Sorghum halepense); test: Test B pre-/postemergence plant response
How it was run: as §1

[6] = test system: lambsquarters (Chenopodium album); test: Test B pre-/postemergence plant response
How it was run: as §1

[7] = test system: large crabgrass (Digitaria sanguinalis); test: Test B pre-/postemergence plant response
How it was run: as §1

[8] = test system: ragweed (common ragweed, Ambrosia elatior); test: Test B pre-/postemergence plant response
How it was run: as §1

soybean (Glycine max) = test: Test B pre-/postemergence plant response
How it was run: as §1

[9] = test system: velvetleaf (Abutilon theophrasti); test: Test B pre-/postemergence plant response
How it was run: as §1

wild oat (Avena fatua) = test: Test B pre-/postemergence plant response
How it was run: as §1

[10] = test system: woolly cupgrass (Eriochloa villosa); test: Test B pre-/postemergence plant response
How it was run: as §1

[11] = test system: yellow nutsedge (Cyperus esculentus); test: Test B pre-/postemergence plant response
How it was run: as §1

[12] = test system: canarygrass (Phalaris minor); test: Test B postemergence plant response
How it was run: (§2)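 Visual ratings from 0 (no effect) to 100 (complete control), made against controls 13–15 days after treatment, kept in a greenhouse. Compounds were applied postemergence to potted plants at the 1- to 4-leaf stage (2–18 cm).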

[13] = test system: chickweed (Stellaria media); test: Test B postemergence plant response
How it was run: as §2

[14] = test system: windgrass (Apera spica-venti); test: Test B postemergence plant response
How it was run: as §2

[15] = test system: winter barley (Hordeum vulgare); test: Test B postemergence plant response
How it was run: as §2

[16] = 31 g ai/ha, postemergence, scale 0 to 100, 0 is no effect, 100 is complete control
[17] = 250 g ai/ha, Preemergence, 0 to 100 scale
[18] = Postemergence, 62 g ai/ha, scale 0 (no effect) to 100 (complete control), 13 to 15 days
[19] = Postemergence, 125 g ai/ha, visual rating after 13 to 15 days, scale 0 (no effect) to 100 (complete control)
[20] = Postemergence, 250 g ai/ha, scale 0 to 100 (0 no effect, 100 complete control)
[21] = Preemergence, 31 g ai/ha, scale 0 to 100 (0 no effect, 100 complete control)
[22] = Preemergence, 125 g ai/ha, 0 to 100 scale
[23] = Preemergence, 62 g ai/ha, scale 0 to 100, 0 no effect, 100 complete control

## CCCn1c(-c2ccccc2)ncc(C(=O)C2=C(O)CCCC2=O)c1=O [Compound 50]
[1]; [16]
  Plant response rating, Ryegrass, Italian: 0
[1]; [17]
  Plant response rating, Ryegrass, Italian: 0
[1]; [18]
  Plant response rating, Ryegrass, Italian: 0
[1]; [19]
  Plant response rating, Ryegrass, Italian: 0
[1]; [20]
  Plant response rating, Ryegrass, Italian: 0
[1]; [21]
  Plant response rating, Ryegrass, Italian: 0
[1]; [22]
  Ryegrass, Italian plant response rating: 0
[2]; [16]
  Plant response rating, Surinam Grass: 65
[2]; [17]
  Plant response rating, Surinam Grass: 100
[2]; [18]
  Plant response rating, Surinam Grass: 75
[2]; [19]
  Plant response rating, Surinam Grass: 80
[2]; [20]
  Plant response rating, Surinam Grass: 85
[2]; [21]
  Plant response rating, Surinam Grass: 75
[2]; [22]
  Surinam Grass plant response rating: 98
[3]; [16]
  Plant response rating, Bermudagrass: 90
[3]; [17]
  Plant response rating, Bermudagrass: 100
[3]; [18]
  Plant response rating, Bermudagrass: 100
[3]; [19]
  Plant response rating, Bermudagrass: 100
[3]; [20]
  Plant response rating, Bermudagrass: 100
[3]; [21]
  Plant response rating, Bermudagrass: 100
[3]; [23]
  Plant response rating, Bermudagrass: 100
[3]; [22]
  Bermudagrass plant response rating: 100
[4]; [16]
  Plant response rating, Blackgrass: 5
[4]; [17]
  Plant response rating, Blackgrass: 5
[4]; [18]
  Plant response rating, Blackgrass: 5
[4]; [19]
  Plant response rating, Blackgrass: 5
[4]; [20]
  Plant response rating, Blackgrass: 15
[4]; [21]
  Plant response rating, Blackgrass: 0
[4]; [23]
  Plant response rating, Blackgrass: 0
[4]; [22]
  Blackgrass plant response rating: 0
Corn (Zea mays); [16]
  Plant response rating, Corn: 5
Corn (Zea mays); [17]
  Plant response rating, Corn: 0
Corn (Zea mays); [18]
  Plant response rating, Corn: 10
Corn (Zea mays); [19]
  Plant response rating, Corn: 25
Corn (Zea mays); [20]
  Plant response rating, Corn: 25
Corn (Zea mays); [21]
  Plant response rating, Corn: 0
Corn (Zea mays); [23]
  Plant response rating, Corn: 0
Corn (Zea mays); [22]
  Corn plant response rating: 0
[5]; [16]
  Plant response rating, Johnsongrass: 0
[5]; [17]
  Plant response rating, Johnsongrass: 95
[5]; [18]
  Plant response rating, Johnsongrass: 10
[5]; [19]
  Plant response rating, Johnsongrass: 65
[5]; [20]
  Plant response rating, Johnsongrass: 70
[5]; [21]
  Plant response rating, Johnsongrass: 0
[5]; [23]
  Plant response rating, Johnsongrass: 20
[5]; [22]
  Johnsongrass plant response rating: 90
[6]; [16]
  Plant response rating, Lambsquarters: 98
[6]; [17]
  Plant response rating, Lambsquarters: 100
[6]; [18]
  Plant response rating, Lambsquarters: 98
[6]; [19]
  Plant response rating, Lambsquarters: 100
[6]; [20]
  Plant response rating, Lambsquarters: 100
[6]; [21]
  Plant response rating, Lambsquarters: 100
[6]; [23]
  Plant response rating, Lambsquarters: 100
[6]; [22]
  Lambsquarters plant response rating: 100
[7]; [16]
  Plant response rating, Crabgrass, Large: 75
[7]; [17]
  Plant response rating, Crabgrass, Large: 100
[7]; [18]
  Plant response rating, Crabgrass, Large: 85
[7]; [19]
  Plant response rating, Crabgrass, Large: 95
[7]; [20]
  Plant response rating, Crabgrass, Large: 98
[7]; [21]
  Plant response rating, Crabgrass, Large: 98
[7]; [23]
  Plant response rating, Crabgrass, Large: 100
[7]; [22]
  Crabgrass, Large plant response rating: 100
[8]; [16]
  Plant response rating, Ragweed: 80
[8]; [17]
  Plant response rating, Ragweed: 100
[8]; [18]
  Plant response rating, Ragweed: 90
[8]; [19]
  Plant response rating, Ragweed: 98
[8]; [20]
  Plant response rating, Ragweed: 98
[8]; [21]
  Plant response rating, Ragweed: 75
[8]; [22]
  Ragweed plant response rating: 95
Soybean (Glycine max); [16]
  Plant response rating, Soybean: 85
Soybean (Glycine max); [17]
  Plant response rating, Soybean: 0
Soybean (Glycine max); [18]
  Plant response rating, Soybean: 85
Soybean (Glycine max); [19]
  Plant response rating, Soybean: 95
Soybean (Glycine max); [20]
  Plant response rating, Soybean: 95
Soybean (Glycine max); [21]
  Plant response rating, Soybean: 0
[9]; [16]
  Plant response rating, Velvetleaf: 90
[9]; [17]
  Plant response rating, Velvetleaf: 100
[9]; [18]
  Plant response rating, Velvetleaf: 98
[9]; [19]
  Plant response rating, Velvetleaf: 98
[9]; [20]
  Plant response rating, Velvetleaf: 100
[9]; [21]
  Plant response rating, Velvetleaf: 85
[9]; [22]
  Velvetleaf plant response rating: 100
Wild oat (Avena fatua); [16]
  Plant response rating, Oat, Wild: 5
Wild oat (Avena fatua); [17]
  Plant response rating, Oat, Wild: 0
Wild oat (Avena fatua); [18]
  Plant response rating, Oat, Wild: 5
Wild oat (Avena fatua); [19]
  Plant response rating, Oat, Wild: 10
Wild oat (Avena fatua); [20]
  Plant response rating, Oat, Wild: 30
Wild oat (Avena fatua); [21]
  Plant response rating, Oat, Wild: 0
Wild oat (Avena fatua); [22]
  Oat, Wild plant response rating: 0
[10]; [16]
  Plant response rating, Cupgrass, Woolly: 70
[10]; [17]
  Plant response rating, Cupgrass, Woolly: 70
[10]; [18]
  Plant response rating, Cupgrass, Woolly: 75
[10]; [19]
  Plant response rating, Cupgrass, Woolly: 80
[10]; [20]
  Plant response rating, Cupgrass, Woolly: 85
[10]; [21]
  Plant response rating, Cupgrass, Woolly: 0
[10]; [23]
  Plant response rating, Cupgrass, Woolly: 5
[10]; [22]
  Cupgrass, Woolly plant response rating: 15
[11]; [16]
  Plant response rating, Nutsedge, Yellow: 70
[11]; [17]
  Plant response rating, Nutsedge, Yellow: 90
[11]; [18]
  Plant response rating, Nutsedge, Yellow: 70
[11]; [19]
  Plant response rating, Nutsedge, Yellow: 70
[11]; [20]
  Plant response rating, Nutsedge, Yellow: 75
[11]; [21]
  Plant response rating, Nutsedge, Yellow: 80
[11]; [22]
  Nutsedge, Yellow plant response rating: 90
[12]; [16]
  Plant response rating, Canarygrass: 0
[12]; [18]
  Plant response rating, Canarygrass: 0
[12]; [19]
  Plant response rating, Canarygrass: 5
[12]; [20]
  Plant response rating, Canarygrass: 5
[13]; [16]
  Plant response rating, Chickweed: 80
[13]; [18]
  Plant response rating, Chickweed: 80
[13]; [19]
  Plant response rating, Chickweed: 98
[13]; [20]
  Plant response rating, Chickweed: 98
[14]; [16]
  Plant response rating, Windgrass: 10
[14]; [18]
  Plant response rating, Windgrass: 50
[14]; [19]
  Plant response rating, Windgrass: 60
[14]; [20]
  Plant response rating, Windgrass: 80
[15]; [16]
  Plant response rating, Barley: 0
[15]; [18]
  Plant response rating, Barley: 0
[15]; [19]
  Plant response rating, Barley: 5
[15]; [20]
  Plant response rating, Barley: 5
